The results in this text go back to patent US9925235B2, “Tilapia piscidins for use in enhancement of wound healing” (Academia Sinica, priority 2015, dated 2018).

Experiment [1] relates to Keratin 10, keratin 17 gene expression in HaCaT cells. Kind of experiment: Real-time PCR of keratin 10 and keratin 17 in HaCaT cells. It counts as cell-based, human. The note with it: TP4 6.25 μg/ml, 48 h. On the procedure: In FIG. 6A-6C, HaCaT cells were treated with different doses of TP4 for 48 h, and cell viability was measured by neutral red, LDH, and MTT assays (r=3; n=6). In FIGS. 6D and 6E, thee experimental HaCaT cells were treated with TP4 (6.25 μg/ml), while control cells were untreated. After 48 h, total RNA was isolated and reverse transcribed for use in real-time qPCR analysis. Six replicate wells were analyzed per assay. Results represent the mean±SEM from three independent experiments. (Student's t-test: *, P<0.05; **, P<0.01, n.s.: not significant).
Total RNA was isolated from HaCaT and Hs-68 cells, and purified using a Qiagen RNeasy kit. Reverse transcription into cDNA was performed with an iScript cDNA Synthesis Kit (BIO-RAD, USA) according to the manufacturer's recommendations. […] Quantitative PCR was performed under the following conditions: 40 cycles of 1 min at 95° C., 30 s at 55° C., and 1 min at 72° C. The threshold cycle number (Ct) was calculated with BIO-RAD software. Relative transcript quantities were calculated using the ΔCt method with GAPDH as the internal reference gene. ΔCt is the difference in the threshold cycles of messenger (m)RNA for selected genes relative to those of GAPDH mRNA. […]
Background: Real-time PCR tracks product formation cycle by cycle.

Experiment [2] has as its system EGF, TGF-β, VEGF gene expression. Kind of experiment: Real-time PCR of cell proliferation genes and histology of infected wounds, TP4. It counts as in vivo, mice. From the text: Adult mice were infected with MRSA, and treated with TP4 or antibiotics, while controls were infected but untreated. On the indicated days, total RNA was isolated from the wound and reverse transcribed for use in real-time qPCR analysis of EGF (FIG. 10A), TGF-β (FIG. 10B), and VEGF (FIG. 10C) gene expression. (r=3; n=6.) Values with different letters show significant differences (P<0.05), as determined by ANOVA.
Tracings were taken immediately after injury. For uncontaminated wounds, wound size was determined every second day. For contaminated wounds, mice were euthanized at days 3, 5, or 19, and tracings of the wound edges were made. Wound areas were determined using the Macintosh Adobe Photoshop program, Histogram Analysis. The percentage of wound contraction was calculated as follows: % Wound contraction=(A0−At)/A0×100, where A0 is the original wound area, and at is the area of wound at the time of biopsy, accordingly. Cell proliferation gene expression was performed by real-time PCR, using the methods described above.
(§1) Skin tissues were removed and fixed as previously described. In brief, the cryosections were fixed with 4% formaldehyde, and the tissue samples were stained with VEGF. IHC was analyzed by three independent investigators. Images were taken using a BX-51 microscope (Olympus, Japan). ELISA was performed as previously described.

The test system of experiment [3] is TNF, IL-6, IL-1. In words: ELISA of serum cytokines in MRSA wound-infected mice, TP4. It counts as in vivo. On the procedure: A skin region of about 1 square centimeter was removed from the abdomen of […] mice, and the wound was infected with […] of broth mix containing 10^6 cfu of MRSA alone, or together with methicillin, vancomycin, or TP4. At different days post-infection: TNF (FIG. 9A), IL-6 (FIG. 9B), and IL-1 (FIG. 9C) were detected in serum by ELISA. (r=3; n=6.) Values with different letters show significant differences (P<0.05), as determined by ANOVA.
as §1

Experiment [4] relates to MRSA. In words: Mouse wound healing model, wound closure, TP4. The experiment is classed as in vivo, Balb/c mice. The settings on record: MRSA-contaminated full-thickness wounds. On the procedure: Female Balb/c mice (6-8 weeks old) were used for wound healing experiments. All mice were housed individually to prevent fighting and further damage to the wounds, and they were provided with food and water ad libitum. Mice were maintained on a 12 h light: dark cycle at room temperature, and acclimatized to the environment for at least a week before use in experiments. All researchers wore caps, sterile gloves, gowns, and shoe covers when handling mice. Hair was removed from the back of the mice by shaving, and a full thickness wound (1 cm in diameter) was then created in the exposed region. Each wound was inoculated with 50 μl of broth mix containing 10^6 cfu (colony forming units) of S. aureus. At 5 min after inoculation, 50 μl TP4 (2 mg/ml) in a total volume of 0.1 ml were applied. […] Animals were subsequently euthanized by CO2 inhalation and the wounds assessed. […] Each wound was measured and then removed from the animal, with unwounded skin taken from the contralateral dorsum as a control. Each biopsy was divided into six sections, with three sections being used for tensiometry and histology, and three sections for quantitative determination of microbial load. […]
Tracings were taken immediately after injury. For uncontaminated wounds, wound size was determined every second day. […] Wound areas were determined using the Macintosh Adobe Photoshop program, Histogram Analysis. […]

The mark [5] stands for this setting: serum, 3 days after treatment, vs positive controls.

On to “Tilapia piscidin 4 (FIHHIIGGLFSAGKAIHRLIRRRRR; listed as Oreochromis niloticus) [TP4]”, for which, in experiment [1], the “gene expression of keratin 10” value is reported as “significantly increased” and the “gene expression of keratin 17” value was “did not affect”. The “epidermal regeneration, histological examination of biopsies” value in experiment [2] (TP4-treated wounds) is “complete and architecturally normal epidermal regeneration”. For the same substance, in experiment [2] (wound tissue, 3 days, vs control and vancomycin-treated mice), the “gene expression of EGF” value was “enhanced gene expression”. The “gene expression of TGF” value in experiment [2] (wound tissue, 7 days, vs control and vancomycin-treated mice) was “enhanced gene expression”. The “gene expression of VEGF” value in experiment [2] (wound tissue, 14 days, vs control and vancomycin-treated mice) is “enhanced gene expression”. Further, the IL-1 result in experiment [3] (TP4-treated wounds vs control wounds) is “statistically significant enhancement”. Further, in experiment [3] (setting [5]), the “induction of IL-6” value was “decreased induction” and the “induction of TNF” value is “decreased induction”. In addition, in experiment [4], the “day of wound closure” value was 21 days and the wound closure entry was “wound closure was accelerated”.
